Values quoted from earlier work, collected in US10188610B2, “Prolonged-release diphenidol composition” (INVEKRA, S.A.P.I. DE C.V., priority 2013, dated 2019).
Counter-ions that a name gives are not always drawn.

Details: after oral administration

- half life: 4 h
Compound: OC(CCCN1CCCCC1)(c1ccccc1)c1ccccc1 [Diphenidol hydrochloride, α,α-diphenil-1-piperidinebutanol]
